The source of these data is ChEMBL document CHEMBL1139346, “Discovery of innovative small molecule therapeutics” (2009).

Test [1] has as its system Rattus norvegicus. In words: Neuroprotective effect in rat transient mCAO focal ischemia model assessed as reduction of infarct volume at 10 mg/kg relative to control. In kind it is functional. More on the design: scale not given: the % may be the effect or the level left.
Test [2] concerns Rattus norvegicus. The test can be described thus: Neuroprotective effect in rat transient mCAO focal ischemia model assessed as reduction of infarct volume at 30 mg/kg relative to control. It counts as functional. On the set-up: scale not given: the % may be the effect or the level left.

Consider `CO[C@@H]1C/C(C)=C\[C@H]2CC[C@@H]([C@@H](C)C[C@@H](C)C(=O)[C@H](OC)[C@H](O)/C(C)=C/[C@@H](C)C(=O)C[C@@H]([C@H](C)C[C@@H]3CC[C@@H](O)[C@H](OC)C3)OC(=O)[C@@H]3CCCCN3C(=O)C(=O)[C@]3(O)O[C@@H](CC[C@H]3C)C1)N(c1ccccc1)O2` [ILS-920], for which the results for the Activity in the test on Rattus norvegicus [1] and with Rattus norvegicus [2] were 23% and 36%, respectively.
